Numbers after ± are expanded uncertainties.
Columns and labels:
[1] = molar enthalpy of vaporization or sublimation; conditions: 298.15 K; Crystal; Static calorimetry
[2] = Crystal; DTA
[3] = Molar enthalpy of transition or fusion; conditions: Crystal; DSC

molar enthalpy [1]: 31.9 ± 0.717 kcal/mol
Triple point temperature [2]: 503.74 ± 0.39 K
Molar enthalpy of transition or fusion [3]: 7.47 ± 0.167 kcal/mol
Structure (SMILES): O=c1ccc2ccc(O)cc2o1 [7-hydroxy-2H-chromen-2-one]
